The values below come from ChEMBL document CHEMBL4342479, “Reactive Oxygen Species (ROS)-Activatable Prodrug for Selective Activation of ATF6 after Ischemia/Reperfusion Injury” (ACS Med Chem Lett, 2020).

Molecules are shown by their SMILES. Activity calls are given as the source filed them. The rule behind the calls is not given here.

In data set [1] the target is T1, Cyclic AMP-dependent transcription factor ATF-6 alpha (Rattus norvegicus) (UniProt G3V909).
T1 sequence (whole entry): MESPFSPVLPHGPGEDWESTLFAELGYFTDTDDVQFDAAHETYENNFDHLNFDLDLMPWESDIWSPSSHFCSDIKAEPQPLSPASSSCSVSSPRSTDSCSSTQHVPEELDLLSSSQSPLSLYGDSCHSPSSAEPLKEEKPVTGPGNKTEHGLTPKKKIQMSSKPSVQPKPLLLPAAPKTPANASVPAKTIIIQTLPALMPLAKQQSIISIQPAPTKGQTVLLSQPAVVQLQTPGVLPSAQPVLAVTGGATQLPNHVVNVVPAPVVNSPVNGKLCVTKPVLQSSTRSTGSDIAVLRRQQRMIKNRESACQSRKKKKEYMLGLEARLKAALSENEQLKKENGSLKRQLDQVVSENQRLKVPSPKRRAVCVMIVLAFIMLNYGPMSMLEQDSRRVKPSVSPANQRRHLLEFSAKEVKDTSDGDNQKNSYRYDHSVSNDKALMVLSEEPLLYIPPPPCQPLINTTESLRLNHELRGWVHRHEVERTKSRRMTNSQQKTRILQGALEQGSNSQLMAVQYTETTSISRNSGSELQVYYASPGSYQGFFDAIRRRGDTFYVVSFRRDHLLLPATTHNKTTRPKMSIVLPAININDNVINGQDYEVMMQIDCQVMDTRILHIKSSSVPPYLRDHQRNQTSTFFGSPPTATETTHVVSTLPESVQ
Put plainly: Activation of ATF6 in NRVM isolated from Sprague-Dawley rat assessed as increase in GRP78 expression at 10 uM using compound pre-activated with hydrogen peroxide for 8 hrs prior to NRVM treatment and measured after 16 hrs by SYBR green dye-based qRT-PCR analysis. (In general: In qPCR the cycle at which signal appears reflects the starting amount.)

In data set [2] the target is T1, Cyclic AMP-dependent transcription factor ATF-6 alpha (Rattus norvegicus). Put plainly: Activation of ATF6 in NRVM isolated from Sprague-Dawley rat assessed as increase in catalase expression at 10 uM using compound pre-activated with hydrogen peroxide for 8 hrs prior to NRVM treatment and measured after 16 hrs by SYBR green dye-based qRT-PCR analysis.
Data set [3] concerns the target T2, Cytochrome P450 1A2 (Homo sapiens, UniProt P05177).
T2 sequence (P05177 whole entry): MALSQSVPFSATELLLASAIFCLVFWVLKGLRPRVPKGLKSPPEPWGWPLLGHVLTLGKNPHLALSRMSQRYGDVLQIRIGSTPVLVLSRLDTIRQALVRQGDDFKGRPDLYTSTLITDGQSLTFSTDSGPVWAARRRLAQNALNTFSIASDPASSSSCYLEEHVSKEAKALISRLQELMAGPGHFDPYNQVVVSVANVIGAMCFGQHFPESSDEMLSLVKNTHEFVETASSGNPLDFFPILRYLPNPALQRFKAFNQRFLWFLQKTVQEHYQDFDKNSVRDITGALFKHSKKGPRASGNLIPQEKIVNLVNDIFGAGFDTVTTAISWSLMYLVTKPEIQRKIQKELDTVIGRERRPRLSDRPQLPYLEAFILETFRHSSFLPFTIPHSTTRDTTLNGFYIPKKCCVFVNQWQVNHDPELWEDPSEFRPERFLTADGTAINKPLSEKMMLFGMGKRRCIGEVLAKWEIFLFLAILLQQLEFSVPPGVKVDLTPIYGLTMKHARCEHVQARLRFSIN
Put plainly: Drug metabolism assessed as recombinant CYP1A2 (unknown origin)-mediated oxidation incubated for 24 hrs in presence of NADP+ by LC-MS analysis. The format is ADME. Particulars: recombinant enzyme.

The target in data set [4] is T1, Cyclic AMP-dependent transcription factor ATF-6 alpha (Rattus norvegicus). Put plainly: Activation of ATF6 in simulated-ischemia-reperfusion NRVM isolated from Sprague-Dawley rat assessed as increase in cell viability by measuring media LDH content at 10 uM followed by ischemia simulation for 8 hrs and subsequent reperfusion and compound treatment for 24 hrs by LDH assay.

For data set [5] the target is unchanged. Put plainly: Activation of ATF6 in NRVM isolated from Sprague-Dawley rat assessed as increase in catalase expression at 10 uM measured after 16 hrs by SYBR green dye-based qRT-PCR analysis.
The target is the same in data set [6]. Briefly: Activation of ATF6 in NRVM isolated from Sprague-Dawley rat assessed as increase in GRP78 expression at 10 uM measured after 16 hrs by SYBR green dye-based qRT-PCR analysis.
Data set [7] has the same target. Put plainly: Activation of ATF6 in simulated-ischemia-reperfusion NRVM isolated from Sprague-Dawley rat assessed as increase in cell viability by measuring media LDH content at 10 uM followed by ischemia simulation for 8 hrs and subsequent reperfusion and compound treatment for 24 hrs under normoxia condition by calcein-AM green dye based fluorescence microscopy.

For another data set, the species on record is Rattus norvegicus. Put plainly: Cytoprotection against hydrogen peroxide-induced toxicity in NRVM isolated from Sprague-Dawley rat assessed as increase in cell viability at 10 uM pretreated for 24 hrs followed by hydrogen peroxide challenge measured after 8 hrs by MTT assay. The data set is classed as functional. (Formazan colour is commonly taken as a measure of viable cells.)

Data set [8] is described as follows: Drug metabolism assessed as intact compound incubated for 24 hrs in presence of NADP+ and absence of recombinant CYP1A2 by LC-MS analysis.
Data set [9] is described as follows: Stability of compound in HBS buffer at 1 mM at pH 7.3 and 37 degree C by HPLC or LC-MS analysis. The data set is classed as physicochemical. Particulars: pH 7.3, 1000 µM.
Data set [10] has as its target T2, Cytochrome P450 1A2. Briefly: Substrate activity at recombinant CYP1A2 (unknown origin) assessed as [4-[[4-methyl-2-(3-phenylpropanoylamino)phenoxy]methyl]phenyl]boronic acid formation incubated for 24 hrs in presence of NADP+ by LC-MS analysis. The format is ADME. Particulars: recombinant enzyme.
The nature of data set [11]: Drug degradation in HBS buffer assessed as half life at 1 mM at pH 7.3 and 37 degree C by HPLC or LC-MS analysis. The format is physicochemical.

Turning to `Cc1ccc(OCCc2ccc(B3OC(C)(C)C(C)(C)O3)cc2)c(NC(=O)CCc2ccccc2)c1`, the result in [1] and in data set [2] was inactive.

On to `Cc1ccc(O)c(NC(=O)CCc2ccccc2)c1`, for which the figures for the Drug metabolism entry (at Cytochrome P450 1A2 [3]; in [8]) were “Metabolite_Detected” and “Metabolite not detected”, respectively. Further, the result (in data set [4]; in data set [5]; in data set [6]; in data set [7]; in the data set listed under Rattus norvegicus) was Active.

Regarding `Cc1ccc(OCc2ccc(B3OC(C)(C)C(C)(C)O3)cc2)c(NC(=O)CCc2ccccc2)c1`, the Stability result in [9] is listed as “Stable”. Also, the result (in data set [4]; in data set [1]; in data set [2]; in data set [7]; in the data set filed under Rattus norvegicus) was Active. On Cytochrome P450 1A2 [10], the Drug metabolism entry was “Metabolite_Notdetected”. In addition, the half-life (commonly the time in which the quantity being followed falls by half) at 1000 µM in data set [11] was 25.8 days.
